Test results taken from patent US20090270478A1, “ION CHANNEL MODULATING ACTIVITY II” (CARDIOME PHARMA CORP., priority 2000, published 2009).

What was measured:
[1] = molecular target: human heart sodium channel (hH1) (Homo sapiens, UniProt Q14524); type: cell-based
hH1 sodium channel = molecular target: T1, hH1 sodium channel (Homo sapiens, UniProt Q14524); assay: Inactivated state inhibition of hH1 sodium channel current (prepulse protocol); type: cell-based
T1 construct: expressed in transfected cells
T1 sequence (Q14524 whole entry): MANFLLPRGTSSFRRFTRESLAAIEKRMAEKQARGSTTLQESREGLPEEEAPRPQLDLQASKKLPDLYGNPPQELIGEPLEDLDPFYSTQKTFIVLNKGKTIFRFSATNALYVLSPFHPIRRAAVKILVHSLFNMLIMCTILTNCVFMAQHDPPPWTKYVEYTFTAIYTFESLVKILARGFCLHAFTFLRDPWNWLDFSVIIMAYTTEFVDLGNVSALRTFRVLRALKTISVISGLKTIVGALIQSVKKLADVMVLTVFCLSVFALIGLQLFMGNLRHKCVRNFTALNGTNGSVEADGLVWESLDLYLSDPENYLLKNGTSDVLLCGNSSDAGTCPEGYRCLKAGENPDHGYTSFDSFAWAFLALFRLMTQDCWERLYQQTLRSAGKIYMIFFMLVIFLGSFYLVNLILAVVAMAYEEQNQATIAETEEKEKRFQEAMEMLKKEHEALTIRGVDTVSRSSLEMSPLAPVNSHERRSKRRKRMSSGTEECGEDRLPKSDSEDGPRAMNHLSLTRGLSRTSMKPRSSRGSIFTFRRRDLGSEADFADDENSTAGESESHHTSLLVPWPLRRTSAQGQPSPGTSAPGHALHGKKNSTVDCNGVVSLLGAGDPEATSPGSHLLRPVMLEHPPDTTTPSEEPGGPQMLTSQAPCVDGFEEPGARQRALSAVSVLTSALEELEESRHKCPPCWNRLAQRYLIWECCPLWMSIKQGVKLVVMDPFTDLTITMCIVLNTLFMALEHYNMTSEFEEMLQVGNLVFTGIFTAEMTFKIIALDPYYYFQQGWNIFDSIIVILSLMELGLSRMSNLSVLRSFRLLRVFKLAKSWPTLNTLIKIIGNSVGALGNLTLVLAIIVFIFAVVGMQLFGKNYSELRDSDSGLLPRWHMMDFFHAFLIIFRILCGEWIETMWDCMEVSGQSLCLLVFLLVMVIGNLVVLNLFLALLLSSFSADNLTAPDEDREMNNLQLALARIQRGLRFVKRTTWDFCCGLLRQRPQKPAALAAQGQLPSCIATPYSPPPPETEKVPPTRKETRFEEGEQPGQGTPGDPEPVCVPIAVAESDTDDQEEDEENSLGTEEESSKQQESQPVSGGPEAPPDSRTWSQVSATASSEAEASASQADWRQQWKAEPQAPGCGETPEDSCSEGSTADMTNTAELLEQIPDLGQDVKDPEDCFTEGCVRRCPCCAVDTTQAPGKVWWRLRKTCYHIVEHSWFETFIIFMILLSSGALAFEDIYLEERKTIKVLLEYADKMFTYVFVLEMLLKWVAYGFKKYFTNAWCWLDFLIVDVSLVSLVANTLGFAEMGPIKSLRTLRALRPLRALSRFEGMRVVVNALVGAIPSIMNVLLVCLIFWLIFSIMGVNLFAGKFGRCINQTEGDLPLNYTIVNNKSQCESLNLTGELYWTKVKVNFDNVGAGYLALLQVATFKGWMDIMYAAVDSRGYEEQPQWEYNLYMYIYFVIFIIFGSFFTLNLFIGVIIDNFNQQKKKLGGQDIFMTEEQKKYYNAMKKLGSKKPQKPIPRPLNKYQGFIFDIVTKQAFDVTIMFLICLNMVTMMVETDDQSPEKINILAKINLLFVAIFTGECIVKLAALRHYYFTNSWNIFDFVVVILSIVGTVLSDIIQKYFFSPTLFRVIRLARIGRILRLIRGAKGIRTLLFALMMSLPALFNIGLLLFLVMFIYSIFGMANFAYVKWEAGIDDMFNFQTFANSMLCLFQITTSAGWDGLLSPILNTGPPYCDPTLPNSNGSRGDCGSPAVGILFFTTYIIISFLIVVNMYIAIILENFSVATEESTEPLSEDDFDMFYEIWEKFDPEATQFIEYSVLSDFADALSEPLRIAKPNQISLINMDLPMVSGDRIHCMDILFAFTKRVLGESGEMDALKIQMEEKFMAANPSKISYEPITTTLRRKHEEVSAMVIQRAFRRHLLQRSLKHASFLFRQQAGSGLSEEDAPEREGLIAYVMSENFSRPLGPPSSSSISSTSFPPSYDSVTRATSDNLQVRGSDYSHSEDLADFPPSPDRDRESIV

[2] = tested on: isolated rabbit Purkinje fibers; details: 100 μM lidocaine, 300 nM dofetilide

Chain of human heart sodium channel (hH1) (Q14524 whole entry, looked up): as the sequence (Q14524 whole entry) above

Question: What does the source list for `CCN(CC)CC(=O)Nc1c(C)cccc1C` [lidocaine]?
Answer: block of early TTX-sensitive sodium current, Iearly(TTX) [1]: 41±2.7%; block of late TTX-sensitive sodium current, Ilate(TTX) [1]: 73±2.8%; block of sustained TTX-sensitive sodium current, Isus(TTX) [1]: 70±2.5%; inhibition of hH1 with longer prepulses (inactivated state inhibition) (hH1 sodium channel): produced enhanced inhibition when prepulses of longer duration were applied; termination of dofetilide-induced EADs [2]: terminated dofetilide-induced (300 nM) EADs
